# How the values were obtained:
# [1] = elevated plus maze test; conditions: in vivo
# [2] = response sensitivity (chain-pulling) test; conditions: in vivo
# [3] = target: T1, α3 subunit of the human GABAA receptor relative to α1 subunit (Homo sapiens, UniProt P18507+P34903); test: potentiation of the GABA EC20 response in stably transfected recombinant cell lines; format: cell-based; conditions: stably transfected recombinant cell lines expressing α3 vs α1 subunit of the human GABAA receptor
# T1 construct: expressed in transfected cells; host or cells: stably transfected eukaryotic cells, typically mouse Ltk- fibroblasts
# T1 sequence (P34903 29-492): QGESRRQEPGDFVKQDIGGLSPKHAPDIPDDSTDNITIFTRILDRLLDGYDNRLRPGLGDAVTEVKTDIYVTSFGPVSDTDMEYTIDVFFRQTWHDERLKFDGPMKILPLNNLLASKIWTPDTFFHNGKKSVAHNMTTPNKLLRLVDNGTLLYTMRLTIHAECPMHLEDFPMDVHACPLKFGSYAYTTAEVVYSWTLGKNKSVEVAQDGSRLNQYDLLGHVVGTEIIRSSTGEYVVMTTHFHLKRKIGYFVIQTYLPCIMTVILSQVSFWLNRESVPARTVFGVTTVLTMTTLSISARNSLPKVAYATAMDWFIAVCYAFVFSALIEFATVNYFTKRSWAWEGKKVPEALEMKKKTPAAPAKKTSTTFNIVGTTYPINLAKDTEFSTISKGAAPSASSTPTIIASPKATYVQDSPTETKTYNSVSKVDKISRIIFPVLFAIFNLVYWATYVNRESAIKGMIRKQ
# T1 sequence (P28472 26-473 partner): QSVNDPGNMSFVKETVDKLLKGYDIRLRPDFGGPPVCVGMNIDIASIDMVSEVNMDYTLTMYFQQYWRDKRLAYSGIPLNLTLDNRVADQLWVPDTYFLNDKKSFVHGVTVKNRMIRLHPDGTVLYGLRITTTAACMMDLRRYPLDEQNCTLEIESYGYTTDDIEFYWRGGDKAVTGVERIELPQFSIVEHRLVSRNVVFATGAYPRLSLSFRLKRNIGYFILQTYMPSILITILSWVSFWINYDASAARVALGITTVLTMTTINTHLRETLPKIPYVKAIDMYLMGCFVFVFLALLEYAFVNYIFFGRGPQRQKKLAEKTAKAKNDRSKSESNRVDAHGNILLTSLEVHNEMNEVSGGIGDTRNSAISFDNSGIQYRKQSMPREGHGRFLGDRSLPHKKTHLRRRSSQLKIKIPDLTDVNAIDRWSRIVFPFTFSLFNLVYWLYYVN
# T1 sequence (P18507 40-467 limits assumed): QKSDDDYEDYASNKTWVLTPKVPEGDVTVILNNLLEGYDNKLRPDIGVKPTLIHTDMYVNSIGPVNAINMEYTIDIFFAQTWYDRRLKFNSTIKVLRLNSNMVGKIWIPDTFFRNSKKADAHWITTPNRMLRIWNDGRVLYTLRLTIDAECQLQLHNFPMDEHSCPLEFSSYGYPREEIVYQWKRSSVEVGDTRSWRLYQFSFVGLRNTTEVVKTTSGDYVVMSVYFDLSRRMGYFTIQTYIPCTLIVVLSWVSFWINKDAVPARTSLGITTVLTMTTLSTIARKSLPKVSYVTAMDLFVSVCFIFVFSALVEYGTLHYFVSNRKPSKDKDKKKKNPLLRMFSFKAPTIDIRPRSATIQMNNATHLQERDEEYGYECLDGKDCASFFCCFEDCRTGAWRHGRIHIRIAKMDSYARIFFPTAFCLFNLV
# From the text: The potentiation of the GABA EC20 response in stably transfected cell lines expressing the α3 and α1 subunits of the human GABAA receptor can conveniently be measured by procedures analogous to the protocol described in Wafford et al., Mol. Pharmacol., 1996, 50, 670-678. The procedure will suitably be carried out utilising cultures of stably transfected eukaryotic cells, typically of stably transfected mouse Ltk^− fibroblast cells.
# [4] = target: α2 and/or α3 subunit of the human GABAA receptor; test: [3H]-flumazenil displacement binding assay, α2 and/or α3 subunit; conditions: displacement of [3H]-flumazenil; human GABAA receptors stably expressed in Ltk- cells; read-out: binding affinity (Ki) for the α2 and/or α3 subunit
# Procedure: Assay buffer: 10 mM KH2PO4, 100 mM KCl, pH 7.4 at room temperature.
# Flunitrazepam 100 μM in assay buffer.
# Cells resuspended in assay buffer (1 tray to 10 ml).
# Supernatant is removed from cells. PBS (approximately 20 ml) is added. The cells are scraped and placed in a 50 ml centrifuge tube. The procedure is repeated with a further 10 ml of PBS to ensure that most of the cells are removed. The cells are pelleted by centrifuging for 20 min at 3000 rpm in a benchtop centrifuge, and then frozen if desired. The pellets are resuspended in 10 ml of buffer per tray (25 cm×25 cm) of cells.
# Can be carried out in deep 96-well plates or in tubes. Each tube contains:
# 50 μl of buffer or solvent carrier (e.g. 10% DMSO) if compounds are dissolved in 10% DMSO (total); test compound or flunitrazepam (to determine non-specific binding), 10 μM final concentration.
# Assays are incubated for 1 hour at 40° C., then filtered using either a Tomtec or Brandel cell harvester onto GF/B filters followed by 3×3 ml washes with ice cold assay buffer. Filters are dried and counted by liquid scintillation counting. […] Binding parameters are determined by non-linear least squares regression analysis, from which the inhibition constant Ki can be calculated for each test compound.
# [5] = conditioned suppression of drinking test; conditions: in vivo
# [6] = target: α3β3γ2 GABAA/BzR (Homo sapiens, UniProt P18507+P34903); test: biochemical
# [7] = brain penetration inferred from behavioural effects; format: in vivo; conditions: inferred because it elicits behavioural effects
# From the text: Since it elicits behavioural effects, the triazolo-pyridazine derivative of the invention plainly is brain-penetrant; in other words, it is capable of crossing the so-called “blood-brain barrier”. Advantageously, the triazolo-pyridazine derivative of the invention is capable of exerting its beneficial therapeutic action following administration by the oral route.
# Sequence of α3β3γ2 GABAA/BzR (P18507 whole entry, looked up): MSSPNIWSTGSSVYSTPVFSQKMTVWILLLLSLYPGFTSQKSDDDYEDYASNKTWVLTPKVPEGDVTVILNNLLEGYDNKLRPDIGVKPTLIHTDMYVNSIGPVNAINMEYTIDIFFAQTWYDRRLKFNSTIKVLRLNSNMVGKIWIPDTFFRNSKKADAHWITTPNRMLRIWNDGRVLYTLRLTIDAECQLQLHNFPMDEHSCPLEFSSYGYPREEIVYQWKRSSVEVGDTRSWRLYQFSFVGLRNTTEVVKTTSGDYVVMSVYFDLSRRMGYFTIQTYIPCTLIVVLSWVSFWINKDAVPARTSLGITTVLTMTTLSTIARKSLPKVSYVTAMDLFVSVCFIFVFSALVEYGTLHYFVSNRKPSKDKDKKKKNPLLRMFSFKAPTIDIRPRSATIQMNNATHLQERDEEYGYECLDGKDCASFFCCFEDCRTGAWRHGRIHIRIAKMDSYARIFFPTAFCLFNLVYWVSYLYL
# Sequence of α3β3γ2 GABAA/BzR (P34903 whole entry, looked up): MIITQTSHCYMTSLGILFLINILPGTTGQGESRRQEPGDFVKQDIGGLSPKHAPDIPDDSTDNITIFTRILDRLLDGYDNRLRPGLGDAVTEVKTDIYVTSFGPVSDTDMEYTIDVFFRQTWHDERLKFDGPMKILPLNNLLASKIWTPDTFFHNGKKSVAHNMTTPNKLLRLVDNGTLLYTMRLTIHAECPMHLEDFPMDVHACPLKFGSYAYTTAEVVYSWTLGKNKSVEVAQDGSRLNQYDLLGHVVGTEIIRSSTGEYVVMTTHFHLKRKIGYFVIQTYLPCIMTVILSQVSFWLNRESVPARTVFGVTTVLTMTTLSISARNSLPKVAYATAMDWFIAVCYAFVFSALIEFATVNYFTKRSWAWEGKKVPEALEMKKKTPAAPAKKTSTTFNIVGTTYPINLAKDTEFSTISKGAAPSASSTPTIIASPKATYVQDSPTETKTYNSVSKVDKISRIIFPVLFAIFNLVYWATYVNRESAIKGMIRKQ
compound,measurement,setting,value
"CCn1ncnc1COc1nn2c(-c3ccccc3F)nnc2cc1C(C)(C)C [triazolo-pyridazine derivative, 7-(1,1-dimethylethyl)-6-(2-ethyl-2H-1,2,4-triazol-3-ylmethoxy)-3-(2-fluorophenyl)-1,2,4-triazolo[4,3-b]pyridazine]","anxiolytic activity, elevated plus maze",[1],positive response
same,"sedation, response sensitivity (chain-pulling) test",[2],substantially non-sedating
same,"potentiation of the GABA EC20 response, α3 relative to α1",[3],selective potentiation
same,Ki,[4],< 1 nM
same,"anxiolytic activity, conditioned suppression of drinking",[5],positive response
same,Ki,[6],< 1 nM
same,brain penetration (crossing the blood-brain barrier),[7],brain-penetrant

# — patent publication US20040259818A1, “Glucoronide adduct as gaba ligand” (priority 2001, published 2004)
